Patent publication US9708336B2, “Metallo-beta-lactamase inhibitors” (priority 2014, dated 2017)
Where two headings read alike, the source gives them in different places.

Columns and labels:
IMP-1 = IMP-1 (Serratia marcescens, UniProt P52699); assay: biochemical; format: biochemical; settings: fluorescence assay with CCF2-FA substrate; read-out: IMP-1 IC50
NDM-1 = NDM-1 (Klebsiella pneumoniae, UniProt C7C422); assay: biochemical; format: biochemical; settings: fluorescence assay with CCF2-FA substrate; read-out: NDM-1 IC50
NDM-1, sequence (C7C422 whole entry, looked up, species assumed): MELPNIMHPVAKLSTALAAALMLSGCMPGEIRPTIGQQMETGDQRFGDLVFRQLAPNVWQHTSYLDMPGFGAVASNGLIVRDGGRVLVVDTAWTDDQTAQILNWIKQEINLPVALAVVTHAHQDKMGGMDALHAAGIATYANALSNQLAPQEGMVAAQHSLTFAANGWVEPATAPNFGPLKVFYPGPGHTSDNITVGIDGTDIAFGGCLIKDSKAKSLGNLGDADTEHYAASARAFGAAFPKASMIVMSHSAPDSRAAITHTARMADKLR

VIM-1 = VIM-1 (Pseudomonas aeruginosa (strain ATCC 15692 / DSM 22644 / CIP 104116 / JCM 14847 / LMG 12228 / 1C / PRS 101 / PAO1), UniProt A0A0F7KYQ8); assay: Enzyme activity: determination of IC50, fluorescence assay with CCF2-FA substrate (VIM-1); format: biochemical
[1] = test system: Escherichia coli expressing NDM-1 (CLB30016); assay: Antibiotic potentiation activity: synergistic concentration (MITC95) with imipenem, OD600 growth; format: cell-based; settings: CLB30016 (NDM-1), 95% inhibition of bacterial growth
Method in brief: (§1)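 Growth after 22–24 h at 35 °C is measured spectrophotometrically for bacteria incubated with compound plus imipenem (4 μg/ml in-well, or 1 μg/ml). Cells come from overnight agar colonies resuspended in saline and diluted 1:100 in 1.1× CAMHB.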

[2] = test system: Serratia marcescens expressing IMP-1 (CL5741); assay: as above; format: cell-based; settings: CL5741 (IMP-1), 95% inhibition of bacterial growth
Method in brief: as §1

[3] = test system: Klebsiella pneumoniae expressing VIM-1 (IHMA599644); assay: as above; format: cell-based; settings: IHMA599644 (VIM-1), 95% inhibition of bacterial growth
Method in brief: as §1

[4] = fluorescence assay with CCF2-FA substrate, read-out: VIM-1 IC50
[5] = VIM-1 IC50, fluorescence assay with CCF2-FA substrate

IMP-1, sequence (P52699 whole entry, looked up): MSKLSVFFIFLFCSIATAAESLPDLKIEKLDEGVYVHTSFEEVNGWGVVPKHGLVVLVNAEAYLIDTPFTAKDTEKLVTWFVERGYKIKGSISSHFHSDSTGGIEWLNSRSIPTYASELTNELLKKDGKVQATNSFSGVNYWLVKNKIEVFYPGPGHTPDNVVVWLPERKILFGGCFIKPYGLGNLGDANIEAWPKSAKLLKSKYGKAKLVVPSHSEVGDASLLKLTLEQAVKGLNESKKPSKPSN

| SMILES | IC50 (IMP-1) [nM] | IC50 (NDM-1) [nM] | IC50 (VIM-1; [4]) [nM] | Escherichia coli MITC95 [1] [µM] | Serratia marcescens MITC95 [2] [µM] | Klebsiella pneumoniae MITC95 [3] [µM] | IC50 (VIM-1; [5]) [nM] |
| --- | --- | --- | --- | --- | --- | --- | --- |
| Nc1nc2c(F)cc(-c3ccc(C(F)(F)F)c(S(N)(=O)=O)c3-c3nnn[nH]3)cc2s1 [Example 743, 3-(2-amino-4-fluoro-1,3-benzothiazol-6-yl)-2-(1H-tetrazol-5-yl)-6-(trifluoromethyl)benzenesulfon-amide] | 0.901 | 0.409 | 0.147 | 3.125 | 6.25 | 6.25 | – |
| NS(=O)(=O)c1c(C(F)(F)F)ccc(-c2ccc(C3CCNCC3)nc2)c1-c1nnn[nH]1 [Example 744, 3-(6-piperidin-4-ylpyridin-3-yl)-2-(1H-tetrazol-5-yl)-6-(trifluoromethyl)benzenesulfon-amide] | 18.1 | 16.3 | – | 6.25 | 12.5 | 12.5 | 0.907 |
| Nc1ccc2cc(-c3ccc(C(F)(F)F)c(S(N)(=O)=O)c3-c3nnn[nH]3)ccc2n1 [Example 745, 3-(2-aminoquinolin-6-yl)-2-(1H-tetrazol-5-yl)-6-(trifluoromethyl)benzenesulfon-amide] | 1.5 | 1.05 | 0.175 | 0.7813 | 3.125 | 3.125 | – |
| NS(=O)(=O)c1c(C(F)(F)F)ccc(-c2ccc3c(c2)CNC3=O)c1-c1nnn[nH]1 [Example 746, 3-(1-oxo-2,3-dihydro-1H-isoindol-5-yl)-2-(1H-tetrazol-5-yl)-6-(trifluoromethyl)benzenesulfon-amide] | 2.59 | 2.27 | 0.234 | 6.25 | 6.25 | 6.25 | – |
| Cc1ccncc1-c1ccc(C(F)(F)F)c(S(N)(=O)=O)c1-c1nnn[nH]1 [Example 747, 3-(4-methylpyridin-3-yl)-2-(1H-tetrazol-5-yl)-6-(trifluoromethyl)benzenesulfon-amide] | 11.2 | 5.72 | – | 6.25 | 25 | 12.5 | 0.866 |
| NS(=O)(=O)c1c(C(F)(F)F)ccc(-c2cnc3ccccn23)c1-c1nnn[nH]1 [Example 748, 3-imidazo[1,2-a]pyridin-3-yl-2-(1H-tetrazol-5-yl)-6-(trifluoromethyl)benzenesulfon-amide] | 1.25 | 0.833 | – | 0.7813 | 6.25 | 6.25 | 0.248 |
| Nc1ncnc2cc(-c3ccc(C(F)(F)F)c(S(N)(=O)=O)c3-c3nnn[nH]3)ccc12 [Example 749, 3-(4-aminoquinazolin-7-yl)-2-(1H-tetrazol-5-yl)-6-(trifluoromethyl)benzenesulfon-amide] | 4.12 | 2.35 | – | 3.125 | 12.5 | 6.25 | 0.262 |
| Nc1nc(N)c2ccc(-c3ccc(C(F)(F)F)c(S(N)(=O)=O)c3-c3nnn[nH]3)cc2n1 [Example 750, 3-(2,4-diaminoquinazolin-7-yl)-2-(1H-tetrazol-5-yl)-6-(trifluoromethyl)benzenesulfon-amide] | 21.5 | 4.75 | – | 1.563 | 6.25 | 3.125 | 0.432 |
| Nc1nccc2cc(-c3ccc(C(F)(F)F)c(S(N)(=O)=O)c3-c3nnn[nH]3)ccc12 [Example 751, 3-(1-aminoisoquinolin-6-yl)-2-(1H-tetrazol-5-yl)-6-(trifluoromethyl)benzenesulfon-amide] | 5.63 | 0.962 | 0.108 | 0.7813 | 3.125 | 3.125 | – |
| CCn1c(N)nc2cc(-c3ccc(C(F)(F)F)c(S(N)(=O)=O)c3-c3nnn[nH]3)ccc21 [Example 752, 3-(2-amino-1-ethyl-1H-benzimidazol-5-yl)-2-(1H-tetrazol-5-yl)-6-(trifluoromethyl)benzenesulfon-amide] | 6.25 | 2.33 | 0.677 | 1.563 | 12.5 | 25 | – |
| Nc1nccc(-c2cccc(-c3ccc(C(F)(F)F)c(S(N)(=O)=O)c3-c3nnn[nH]3)c2)n1 [Example 753, 3′-(2-aminopyrimidin-4-yl)-2-(1H-tetrazol-5-yl)-4-(trifluoromethyl)biphenyl-3-sulfonamdie] | 2.02 | 1.01 | 0.754 | 12.5 | 12.5 | 100 | – |
| N[C@@H]1CN(c2ccc(C(F)(F)F)c(S(N)(=O)=O)c2-c2nnn[nH]2)CC12CC2 [Example 754, 3-[(7S)-7-amino-5-azaspiro[2.4]hept-5-yl]-2-(1H-tetrazol-5-yl)-6-(trifluoromethyl) benzenesulfonamide] | 869 | 596 | 7.67 | 25 | 50 | 12.5 | – |
| NCCC1CCN(c2ccc(C(F)(F)F)c(S(N)(=O)=O)c2-c2nnn[nH]2)CC1 [Example 755, 3-[4-(2-aminoethyl)piperidin-1-yl]-2-(1H-tetrazol-5-yl)-6-(trifluoromethyl) benzenesulfonamide] | 22.1 | 13.9 | 0.191 | 6.25 | 6.25 | 3.125 | – |
| NS(=O)(=O)c1c(C(F)(F)F)ccc(N2C[C@@H](O)[C@H](O)C2)c1-c1nnn[nH]1 [Example 756, 3-[(3R,4R)-3,4-dihydroxypyrrolidin-1-yl]-2-(1H-tetrazol-5-yl)-6-(trifluoromethyl) benzenesulfonamide] | 89.1 | 78.1 | – | 12.5 | 12.5 | >200 | 339 |
| NS(=O)(=O)c1c(C(F)(F)F)ccc(N2C[C@@H](O)[C@@H](O)C2)c1-c1nnn[nH]1 [Example 757, 3-[(3R,4S)-3,4-dihydroxypyrrolidin-1-yl]-2-(1H-tetrazol-5-yl)-6-(trifluoromethyl) benzenesulfonamide] | 111 | 82.8 | – | 12.5 | 25 | >200 | 353 |
| NC1CN(C2CCN(c3ccc(C(F)(F)F)c(S(N)(=O)=O)c3-c3nnn[nH]3)CC2)C1 [Example 758, 3-[4-(3-aminoazetidin-1-yl)piperidin-1-yl]-2-(1H-tetrazol-5-yl)-6-(trifluoromethyl) benzenesulfonamide] | 45.8 | 29.6 | – | 6.25 | 6.25 | 6.25 | 2.44 |
| NS(=O)(=O)c1c(C(F)(F)F)ccc(N2CCN(CCO)CC2)c1-c1nnn[nH]1 [Example 759, 3-[4-(2-hydroxyethyl)piperazin-1-yl]-2-(1H-tetrazol-5-yl)-6-(trifluoromethyl) benzenesulfonamide] | 40.9 | 22.5 | 45.6 | 3.125 | 3.125 | 12.5 | – |
| CC(C)(C)C(=O)NCC1CCN(c2ccc(C(F)(F)F)c(S(N)(=O)=O)c2-c2nnn[nH]2)CC1 [Example 760, 2,2-dimethyl-N-({1-[3-sulfamoyl-2-(1H-tetrazol-5-yl)-4-(trifluoromethyl)phenyl]piperidin-4-yl}methyl) propanamide] | 2.08 | 5.64 | 1.51 | 100 | 25 | 100 | – |
| NC1CCCC12CCN(c1ccc(C(F)(F)F)c(S(N)(=O)=O)c1-c1nnn[nH]1)CC2 (stereo not drawn) [Example 761, 3-(1-amino-8-azaspiro[4.5]dec-8-yl)-2-(1H-tetrazol-5-yl)-6-(trifluoromethyl) benzenesulfonamide] | 104 | 46 | 48.3 | 100 | 100 | >200 | – |
| NCC1CN(C2CCN(c3ccc(C(F)(F)F)c(S(N)(=O)=O)c3-c3nnn[nH]3)CC2)C1 [Example 762, 3-{4-[3-(aminomethyl)azetidin-1-yl]piperidin-1-yl}-2-(1H-tetrazol-5-yl)-6-(trifluoromethyl) benzenesulfonamide] | 123 | 73.2 | 14.2 | 3.125 | 6.25 | 6.25 | – |
